According to patent US20230391768A2, “IMIDAZOPYRIDINE DERIVATIVES AND AZA-IMIDAZOPYRIDINE DERIVATIVES AS JANUS KINASE 2 INHIBITORS AND USES THEREOF” (Dana-Farber Cancer Institute, Inc., priority 2018, published 2023):

How the values were obtained:
Assay in all cases: KINOMEscan
Assay type in all cases: binding
CDK5 = CDK5 (Homo sapiens (Human), UniProt Q00535); conditions: read-out: percent of control
Experimental: (§1) In vitro profiling of Compound I-2 (1 μM) was performed using the DiscoveRx KINOMEscan® platform.

MAP4K3 = MAP4K3 (Homo sapiens (Human), UniProt Q8IVH8); conditions: read-out: percent of control
Experimental: as §1

SYK = SYK (Homo sapiens (Human), UniProt P43405); conditions: read-out: percent of control
Experimental: as §1

NEK11 = NEK11 (Homo sapiens (Human), UniProt Q8NG66); conditions: read-out: percent of control
Experimental: as §1

EPHA8 = EPHA8 (Homo sapiens (Human), UniProt P29322); conditions: read-out: percent of control
Experimental: as §1

PAK3 = PAK3 (Homo sapiens (Human), UniProt O75914); conditions: read-out: percent of control
Experimental: as §1

SRPK3 = SRPK3 (Homo sapiens (Human), UniProt Q9UPE1); conditions: read-out: percent of control
Experimental: as §1

PLK1 = PLK1 (Homo sapiens (Human), UniProt P53350); conditions: read-out: percent of control
Experimental: as §1

ACVRL1 = ACVRL1 (Homo sapiens (Human), UniProt P37023); conditions: read-out: percent of control
Experimental: as §1

MYLK4 = MYLK4 (Homo sapiens (Human), UniProt Q86YV6); conditions: read-out: percent of control
Experimental: as §1

MAST1 = MAST1 (Homo sapiens (Human), UniProt Q9Y2H9); conditions: read-out: percent of control
Experimental: as §1

JNK1 = JNK1 (Homo sapiens (Human), UniProt P45983); conditions: read-out: percent of control
Experimental: as §1

YES = YES (Homo sapiens (Human), UniProt P07947); conditions: read-out: percent of control
Experimental: as §1

PIK3CA(H1047Y) = PIK3CA(H1047Y) (Homo sapiens (Human), UniProt P42336, H1047Y); conditions: read-out: percent of control
Experimental: as §1

MLK3 = MLK3 (Homo sapiens (Human), UniProt Q16584); conditions: read-out: percent of control
Experimental: as §1

MLK2 = MLK2 (Homo sapiens (Human), UniProt Q02779); conditions: read-out: percent of control
Experimental: as §1

CAMK1D = CAMK1D (Homo sapiens (Human), UniProt Q8IU85); conditions: read-out: percent of control
Experimental: as §1

PFPK5(P.falciparum) = PFPK5(P.falciparum) (Plasmodium falciparum (isolate 3D7), UniProt P61075); conditions: read-out: percent of control
Experimental: as §1

NEK7 = NEK7 (Homo sapiens (Human), UniProt Q8TDX7); conditions: read-out: percent of control
Experimental: as §1

RET (V804M) = RET (V804M) (Homo sapiens (Human), UniProt P07949, V804M); conditions: read-out: percent of control
Experimental: as §1

PRKG2 = PRKG2 (Homo sapiens (Human), UniProt Q13237); conditions: read-out: percent of control
Experimental: as §1

MAP3K1 = MAP3K1 (Homo sapiens (Human), UniProt Q13233); conditions: read-out: percent of control
Experimental: as §1

p38-delta = p38-delta (Homo sapiens (Human), UniProt O15264); conditions: read-out: percent of control
Experimental: as §1

PYK2 = PYK2 (Homo sapiens (Human), UniProt Q14289); conditions: read-out: percent of control
Experimental: as §1

RIOK1 = RIOK1 (Homo sapiens (Human), UniProt Q9BRS2); conditions: read-out: percent of control
Experimental: as §1

[1] = target: RPS6KA5 (Kin.Dom.2-C-terminal) (Homo sapiens (Human), UniProt O75582); conditions: read-out: percent of control
Experimental: as §1

EPHA1 = EPHA1 (Homo sapiens (Human), UniProt P21709); conditions: read-out: percent of control
Experimental: as §1

TAOK1 = TAOK1 (Homo sapiens (Human), UniProt Q7L7X3); conditions: read-out: percent of control
Experimental: as §1

PIM1 = PIM1 (Homo sapiens (Human), UniProt P11309); conditions: read-out: percent of control
Experimental: as §1

CSNK1D = CSNK1D (Homo sapiens (Human), UniProt P48730); conditions: read-out: percent of control
Experimental: as §1

PIKFYVE = PIKFYVE (Homo sapiens (Human), UniProt Q9Y2I7); conditions: read-out: percent of control
Experimental: as §1

ADCK4 = ADCK4 (Homo sapiens (Human), UniProt Q96D53); conditions: read-out: percent of control
Experimental: as §1

KIT-autoinhibited = KIT-autoinhibited (Homo sapiens (Human), UniProt P10721); conditions: read-out: percent of control
Experimental: as §1

MST4 = MST4 (Homo sapiens (Human), UniProt Q9P289); conditions: read-out: percent of control
Experimental: as §1

[2] = target: JAK3(JH1domain-catalytic) (Homo sapiens (Human), UniProt P52333); conditions: for remaining binding at 1 µM: JAK3(JH1domain-catalytic), read-out: percent of control
Experimental: as §1

MAP3K4 = MAP3K4 (Homo sapiens (Human), UniProt Q9Y6R4); conditions: read-out: percent of control
Experimental: as §1

PKMYT1 = PKMYT1 (Homo sapiens (Human), UniProt Q99640); conditions: read-out: percent of control
Experimental: as §1

MRCKA = MRCKA (Homo sapiens (Human), UniProt Q5VT25); conditions: read-out: percent of control
Experimental: as §1

Chain of JAK3(JH1domain-catalytic) (P52333 822-1111): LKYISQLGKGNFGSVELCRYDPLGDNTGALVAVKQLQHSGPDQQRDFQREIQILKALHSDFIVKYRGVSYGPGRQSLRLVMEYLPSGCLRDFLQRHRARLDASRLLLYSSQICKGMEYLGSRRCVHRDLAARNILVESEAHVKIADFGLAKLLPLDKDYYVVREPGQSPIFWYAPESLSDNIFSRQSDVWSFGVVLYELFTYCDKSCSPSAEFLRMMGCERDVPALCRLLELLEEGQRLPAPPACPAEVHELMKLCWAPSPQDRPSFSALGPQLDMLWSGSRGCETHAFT
Chain of MLK2 (Q02779 whole entry): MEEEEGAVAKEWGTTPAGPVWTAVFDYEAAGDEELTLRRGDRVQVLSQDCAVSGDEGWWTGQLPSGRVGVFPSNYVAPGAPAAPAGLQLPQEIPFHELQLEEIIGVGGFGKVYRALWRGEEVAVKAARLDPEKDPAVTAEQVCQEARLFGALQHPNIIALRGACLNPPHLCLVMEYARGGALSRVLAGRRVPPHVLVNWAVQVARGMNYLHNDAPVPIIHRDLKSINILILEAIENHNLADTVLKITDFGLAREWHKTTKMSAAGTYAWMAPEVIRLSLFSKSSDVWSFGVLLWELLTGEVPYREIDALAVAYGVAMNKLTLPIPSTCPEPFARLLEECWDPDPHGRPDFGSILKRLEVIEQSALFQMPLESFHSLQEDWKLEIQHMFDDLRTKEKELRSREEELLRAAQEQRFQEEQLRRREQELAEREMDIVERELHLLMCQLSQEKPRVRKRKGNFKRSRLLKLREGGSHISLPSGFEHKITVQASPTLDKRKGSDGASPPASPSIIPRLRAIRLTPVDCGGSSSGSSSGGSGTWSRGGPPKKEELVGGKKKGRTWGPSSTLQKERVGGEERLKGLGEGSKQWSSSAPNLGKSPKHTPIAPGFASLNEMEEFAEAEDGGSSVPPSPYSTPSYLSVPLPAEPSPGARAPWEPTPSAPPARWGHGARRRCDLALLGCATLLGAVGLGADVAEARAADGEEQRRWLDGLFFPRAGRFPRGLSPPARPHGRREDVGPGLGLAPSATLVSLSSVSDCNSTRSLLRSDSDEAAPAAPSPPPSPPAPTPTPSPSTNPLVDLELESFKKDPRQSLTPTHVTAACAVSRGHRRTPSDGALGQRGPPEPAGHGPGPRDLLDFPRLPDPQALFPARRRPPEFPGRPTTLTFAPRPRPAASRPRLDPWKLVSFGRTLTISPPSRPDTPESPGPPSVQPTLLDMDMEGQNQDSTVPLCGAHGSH
Chain of MAST1 (Q9Y2H9 whole entry): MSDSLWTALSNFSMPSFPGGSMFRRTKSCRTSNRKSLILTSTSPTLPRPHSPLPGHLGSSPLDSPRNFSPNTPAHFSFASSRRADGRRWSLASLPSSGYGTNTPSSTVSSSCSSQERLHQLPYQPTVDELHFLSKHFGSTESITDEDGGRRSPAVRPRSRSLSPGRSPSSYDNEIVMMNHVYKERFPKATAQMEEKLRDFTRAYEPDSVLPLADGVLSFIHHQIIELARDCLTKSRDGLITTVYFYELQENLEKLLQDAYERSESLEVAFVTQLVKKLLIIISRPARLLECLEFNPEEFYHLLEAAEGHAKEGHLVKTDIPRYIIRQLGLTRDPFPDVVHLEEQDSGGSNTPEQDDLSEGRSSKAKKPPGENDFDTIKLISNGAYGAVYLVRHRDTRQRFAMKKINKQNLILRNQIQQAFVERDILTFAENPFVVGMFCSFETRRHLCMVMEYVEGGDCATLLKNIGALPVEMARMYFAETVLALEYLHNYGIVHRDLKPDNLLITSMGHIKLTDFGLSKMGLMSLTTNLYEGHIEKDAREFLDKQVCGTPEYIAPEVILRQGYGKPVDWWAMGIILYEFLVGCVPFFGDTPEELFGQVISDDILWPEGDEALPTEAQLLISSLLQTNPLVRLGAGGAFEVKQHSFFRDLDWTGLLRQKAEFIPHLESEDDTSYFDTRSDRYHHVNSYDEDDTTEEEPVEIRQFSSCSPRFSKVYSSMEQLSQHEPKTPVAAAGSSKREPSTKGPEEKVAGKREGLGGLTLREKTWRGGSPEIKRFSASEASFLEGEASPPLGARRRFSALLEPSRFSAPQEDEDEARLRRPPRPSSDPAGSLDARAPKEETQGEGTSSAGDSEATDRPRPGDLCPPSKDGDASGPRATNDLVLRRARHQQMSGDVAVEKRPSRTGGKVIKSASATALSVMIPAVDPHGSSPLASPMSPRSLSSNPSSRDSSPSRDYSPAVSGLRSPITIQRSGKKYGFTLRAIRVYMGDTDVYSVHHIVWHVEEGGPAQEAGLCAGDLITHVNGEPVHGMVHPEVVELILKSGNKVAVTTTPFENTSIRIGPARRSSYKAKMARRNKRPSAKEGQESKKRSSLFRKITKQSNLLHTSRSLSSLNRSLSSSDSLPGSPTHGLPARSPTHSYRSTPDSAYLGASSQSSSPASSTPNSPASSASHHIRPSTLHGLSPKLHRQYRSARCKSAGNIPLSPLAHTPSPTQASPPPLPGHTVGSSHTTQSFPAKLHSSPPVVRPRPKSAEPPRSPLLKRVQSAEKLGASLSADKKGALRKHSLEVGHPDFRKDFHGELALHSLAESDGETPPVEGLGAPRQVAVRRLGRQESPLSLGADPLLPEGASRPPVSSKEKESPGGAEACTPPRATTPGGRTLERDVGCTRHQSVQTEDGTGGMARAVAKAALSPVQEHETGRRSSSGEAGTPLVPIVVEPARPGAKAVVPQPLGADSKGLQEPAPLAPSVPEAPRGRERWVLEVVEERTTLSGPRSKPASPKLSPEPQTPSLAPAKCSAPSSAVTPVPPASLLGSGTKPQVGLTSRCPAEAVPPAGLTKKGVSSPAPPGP
Chain of MAP3K4 (Q9Y6R4 whole entry): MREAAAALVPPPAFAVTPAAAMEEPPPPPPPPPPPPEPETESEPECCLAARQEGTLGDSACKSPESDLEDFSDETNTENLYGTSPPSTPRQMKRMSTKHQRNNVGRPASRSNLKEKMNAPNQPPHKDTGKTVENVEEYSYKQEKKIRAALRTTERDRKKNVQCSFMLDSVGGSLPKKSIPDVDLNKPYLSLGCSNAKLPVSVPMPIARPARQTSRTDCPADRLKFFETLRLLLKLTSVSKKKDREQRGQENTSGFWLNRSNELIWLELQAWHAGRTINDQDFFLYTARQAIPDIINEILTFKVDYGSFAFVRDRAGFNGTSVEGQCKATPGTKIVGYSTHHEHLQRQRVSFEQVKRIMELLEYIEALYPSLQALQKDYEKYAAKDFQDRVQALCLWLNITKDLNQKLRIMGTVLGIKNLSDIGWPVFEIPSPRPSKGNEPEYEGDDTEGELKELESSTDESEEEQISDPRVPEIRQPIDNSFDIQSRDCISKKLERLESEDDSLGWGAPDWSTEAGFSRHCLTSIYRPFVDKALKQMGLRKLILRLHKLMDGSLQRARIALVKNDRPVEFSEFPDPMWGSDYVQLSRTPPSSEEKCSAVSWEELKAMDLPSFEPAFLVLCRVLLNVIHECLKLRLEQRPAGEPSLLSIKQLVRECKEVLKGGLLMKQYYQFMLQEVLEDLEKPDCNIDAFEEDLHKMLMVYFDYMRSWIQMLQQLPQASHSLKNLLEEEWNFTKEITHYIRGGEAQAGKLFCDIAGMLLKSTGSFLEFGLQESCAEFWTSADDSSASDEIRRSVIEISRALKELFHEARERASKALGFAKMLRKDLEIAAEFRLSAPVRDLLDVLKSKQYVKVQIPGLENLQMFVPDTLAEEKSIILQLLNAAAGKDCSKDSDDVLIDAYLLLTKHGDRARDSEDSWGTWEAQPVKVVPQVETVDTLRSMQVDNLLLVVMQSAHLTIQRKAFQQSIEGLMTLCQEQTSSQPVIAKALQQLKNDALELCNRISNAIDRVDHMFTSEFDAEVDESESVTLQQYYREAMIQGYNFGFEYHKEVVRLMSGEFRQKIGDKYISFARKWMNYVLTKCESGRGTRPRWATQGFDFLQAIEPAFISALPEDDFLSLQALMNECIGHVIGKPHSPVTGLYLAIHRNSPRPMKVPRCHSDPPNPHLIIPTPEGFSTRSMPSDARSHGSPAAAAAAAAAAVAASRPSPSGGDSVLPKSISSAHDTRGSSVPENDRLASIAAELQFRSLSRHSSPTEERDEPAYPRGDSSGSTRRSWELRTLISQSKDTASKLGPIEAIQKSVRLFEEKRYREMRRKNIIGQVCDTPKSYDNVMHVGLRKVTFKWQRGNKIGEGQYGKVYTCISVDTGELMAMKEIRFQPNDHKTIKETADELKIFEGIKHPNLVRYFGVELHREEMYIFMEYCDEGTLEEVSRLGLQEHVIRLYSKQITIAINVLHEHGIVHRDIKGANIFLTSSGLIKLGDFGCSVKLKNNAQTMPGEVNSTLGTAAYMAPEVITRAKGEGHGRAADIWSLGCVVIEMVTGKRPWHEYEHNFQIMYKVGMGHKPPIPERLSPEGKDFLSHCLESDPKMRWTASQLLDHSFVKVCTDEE
Chain of ACVRL1 (P37023 22-503): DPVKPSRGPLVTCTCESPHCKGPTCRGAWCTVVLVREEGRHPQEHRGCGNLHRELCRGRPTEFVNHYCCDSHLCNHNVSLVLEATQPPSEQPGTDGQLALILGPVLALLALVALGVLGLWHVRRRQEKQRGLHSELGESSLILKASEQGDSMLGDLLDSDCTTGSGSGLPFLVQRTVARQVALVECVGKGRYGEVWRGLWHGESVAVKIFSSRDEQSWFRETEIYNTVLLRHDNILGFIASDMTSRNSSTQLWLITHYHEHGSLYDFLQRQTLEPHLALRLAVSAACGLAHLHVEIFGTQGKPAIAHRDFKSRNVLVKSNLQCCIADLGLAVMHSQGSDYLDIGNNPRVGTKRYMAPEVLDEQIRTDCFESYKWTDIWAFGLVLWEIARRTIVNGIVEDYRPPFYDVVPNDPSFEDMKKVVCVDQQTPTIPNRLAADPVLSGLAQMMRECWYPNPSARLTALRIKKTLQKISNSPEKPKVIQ

| Compound | remaining binding at 1 µM (CDK5) | remaining binding at 1 µM (MAP4K3) | remaining binding at 1 µM (SYK) | remaining binding at 1 µM (NEK11) | remaining binding at 1 µM (EPHA8) | remaining binding at 1 µM (PAK3) | remaining binding at 1 µM (SRPK3) | remaining binding at 1 µM (PLK1) | remaining binding at 1 µM (ACVRL1) | remaining binding at 1 µM (MYLK4) | remaining binding at 1 µM (MAST1) | remaining binding at 1 µM (JNK1) | remaining binding at 1 µM (YES) | remaining binding at 1 µM (PIK3CA(H1047Y)) | remaining binding at 1 µM (MLK3) | remaining binding at 1 µM (MLK2) | remaining binding at 1 µM (CAMK1D) | remaining binding at 1 µM (PFPK5(P.falciparum)) | remaining binding at 1 µM (NEK7) | remaining binding at 1 µM (RET (V804M)) | also measured |
| --- | --- | --- | --- | --- | --- | --- | --- | --- | --- | --- | --- | --- | --- | --- | --- | --- | --- | --- | --- | --- | --- |
| CCN1CCN(Cc2cc(NC(=O)c3ccc(C)c(-c4ccc5nc(NC(=O)C6CC6)cn5n4)c3)cc(C(F)(F)F)c2)CC1 [Compound I-2, 3-(2-(cyclopropanecarboxamido)imidazo[1,2-b]pyridazin-6-yl)-N-(3-((4-ethylpiperazin-1-yl)methyl)-5-(trifluoromethyl)phenyl)-4-methylbenzamide] | 6.6% | 3.4% | 1.9% | 65% | 0% | 82% | 92% | 98% | 91% | 96% | 94% | 96% | 4.7% | 82% | 76% | 72% | 97% | 91% | 99% | 0.05% | remaining binding at 1 µM (PRKG2): 100%; remaining binding at 1 µM (MAP3K1): 97%; remaining binding at 1 µM (p38-delta): 41%; remaining binding at 1 µM (PYK2): 3.2%; remaining binding at 1 µM (RIOK1): 100%; remaining binding at 1 µM [1]: 100%; remaining binding at 1 µM (EPHA1): 44%; remaining binding at 1 µM (TAOK1): 3.9%; remaining binding at 1 µM (PIM1): 90%; remaining binding at 1 µM (CSNK1D): 100%; remaining binding at 1 µM (PIKFYVE): 93%; remaining binding at 1 µM (ADCK4): 75%; remaining binding at 1 µM (KIT-autoinhibited): 79%; remaining binding at 1 µM (MST4): 92%; remaining binding at 1 µM [2]: 0%; selectivity for JAK3 over JAK2, JAK1, and TYK2 ([2]; KINOMEscan, 1 μM): more selective for JAK3 over JAK2, JAK1, and TYK2; remaining binding at 1 µM (MAP3K4): 89%; remaining binding at 1 µM (PKMYT1): 100%; remaining binding at 1 µM (MRCKA): 91% |
| CCN1CCN(Cc2cc(NC(=O)c3ccc(C)c(-c4ccc5nc(NC(=O)C6CC6)cn5c4)c3)cc(C(F)(F)F)c2)CC1 [Compound I-6, 3-(2-(cyclopropanecarboxamido)imidazo[1,2-a]pyridin-6-yl)-N-(3-((4-ethylpiperazin-1-yl)methyl)-5-(trifluoromethyl)phenyl)-4-methylbenzamide] | 52% | 19% | 0.65% | 89% | 0% | 66% | 83% | 100% | 92% | 100% | 95% | 96% | 1.6% | 92% | 82% | 62% | 93% | 77% | 91% | 0% | remaining binding at 1 µM (PRKG2): 99%; remaining binding at 1 µM (MAP3K1): 94%; remaining binding at 1 µM (p38-delta): 32%; remaining binding at 1 µM (PYK2): 4.1%; remaining binding at 1 µM (RIOK1): 95%; remaining binding at 1 µM [1]: 98%; remaining binding at 1 µM (EPHA1): 38%; remaining binding at 1 µM (TAOK1): 4.5%; remaining binding at 1 µM (PIM1): 93%; remaining binding at 1 µM (CSNK1D): 100%; remaining binding at 1 µM (PIKFYVE): 100%; remaining binding at 1 µM (ADCK4): 91%; remaining binding at 1 µM (KIT-autoinhibited): 85%; remaining binding at 1 µM (MST4): 100%; remaining binding at 1 µM [2]: 0%; remaining binding at 1 µM (MAP3K4): 81%; remaining binding at 1 µM (PKMYT1): 100%; remaining binding at 1 µM (MRCKA): 100% |
